These results are taken from article PMC7424068, “Design, Synthesis, and Biological Evaluation of Novel Thiazolidinone-Containing Quinoxaline-1,4-di-N-oxides as Antimycobacterial and Antifungal Agents” (Frontiers in Chemistry, 2020).

In brackets after ≈: the same amount, converted by molar mass. Where two headings read alike, the source gives them in different places. Where only a bound is given, the exact number is not on record here.

By IC50 is commonly meant the concentration that gives 50% inhibition. The low end stands for greater potency, the high end for weaker potency. The term EC90 denotes the point of the concentration-response curve where the effect stands at 90%. High values mean a need for much substance, low ones an effect from little substance. What is called EC99 is the point of the concentration-response curve where the effect stands at 99%. By melting point is commonly meant the temperature, or range, at which the solid turns liquid.

One series concerns Mtb H37Rv (ATCC27294). The series is described as follows: Antimycobacterial activity, microplate Alamar blue assay (MABA). The series is classed as cell-based, Mycobacterium tuberculosis. The conditions noted are these: for antimycobacterial activity (in words): Mtb strain H37Rv; for MIC: Mycobacterium tuberculosis, Mtb H37Rv. (In general: Resazurin is reduced to fluorescent resorufin, in cell work by metabolically active cells.)

A further series concerns VERO cell line. In words: Cytotoxicity MTT assay. The series is classed as cell-based. The conditions noted are these: Chlorocebus sabaeus, cytotoxicity in VERO cells, 72 h. How it is done:
VERO cells (2 × 10^4 cells) were seeded into 96-well plates and incubated for 12 h. Serial dilutions of the compounds were mixed with the cell suspension in the plates. Both treated cells and blank and solvent controls were incubated for 72 h, followed by incubation with MTT (0.5 mg/mL) for another 4 h. The microplates were measured at 570 nm using a multimode reader (Infinite M200, Tecan). The percentage of viable cells was calculated as the mean with respect to the controls set to 100%. Triplicate wells were analyzed for each concentration. IC50 was defined as the concentration that reduced the viable cells by 50% compared to the untreated control cells. It was considered significant when the SI was more than 10.
Background: Formazan colour is commonly taken as a measure of viable cells.

The subject of series [1] is TB-infected macrophage model. In words: Macrophage assay (TB-infected macrophage model). It is filed as cell-based, Mycobacterium tuberculosis. The conditions noted are these: for EC90: Mycobacterium tuberculosis, Macrophage, 168 h, concentration causing 90% reduction in residual mycobacterial growth after 7 days; for EC99: concentration causing 99% reduction in residual mycobacterial growth after 7 days.

Another series relates to C. albicans (ATCC90028). The series is described as follows: Antifungal activity, broth microdilution. It is filed as cell-based, Candida albicans. The conditions noted are these: Candida albicans ATCC 90028, read-out: MIC. How it is done: (§1) All synthesized compounds and the positive control drugs amphotericin B and ketoconazole were tested for their in vitro antifungal activity. Antifungal activity was evaluated against four fungi, C. albicans (ATCC90028), C. tropicalis (ATCC7349), A. fumigatus (3.5352), and C. neoformans (2.3201), by broth microdilution according to the protocols from the NCCLS (Jiang et al., [2014]). Briefly, all tested compounds were dissolved in DMSO, and the solutions were diluted with fresh broth medium. All of the fungi-seeded broth (1 × 10^5 colony-forming units [CFU]/mL) were prepared in RPMI 1640 medium and added into the serially diluted drug solution. The tubes were incubated at 28°C, and the MIC (μg/mL) was recorded 72–96 h post-incubation. Broth control (without fungi), growth controls (with fungi and without drug), solvent (DMSO) control, and drug control for both test drugs and standard drugs were set under identical conditions. The minimum drug concentration in the tubes in which no apparent growth of the organism was observed represented the MIC of the compounds.
On the technique in general: In broth dilution the organism is exposed to a series of concentrations in liquid medium.

A further series deals with A. fumigatus (3.5352). In words: Antifungal activity, broth microdilution. It is filed as cell-based. The conditions noted are these: Aspergillus fumigatus; A. fumigatus 3.5352; read-out: MIC. How it is done: as §1
The subject of a further series is C. neoformans (2.3201). The series is described as follows: Antifungal activity, broth microdilution. The conditions noted are these: Cryptococcus neoformans; C. neoformans 2.3201; read-out: MIC. The series is classed as cell-based. On the procedure: as §1
The next series deals with C. tropicalis (ATCC7349). In words: Antifungal activity, broth microdilution. It is filed as cell-based. The conditions noted are these: Candida tropicalis, C. tropicalis ATCC 7349, read-out: MIC. How it is done: as §1
The subject of series [2] is Candida albicans, Candida tropicalis, Aspergillus fumigatus, and Cryptococcus neoformans. The series is described as follows: Antifungal activity, broth microdilution, stated for the four fungi together. The series is classed as cell-based. The conditions noted are these: C. albicans, C. tropicalis, A. fumigatus, C. neoformans together; read-out: MIC (antifungal, over the four fungi). How it is done: as §1

The test system of series [3] is M. tuberculosis (Mtb) strain H37Rv. The arrangement: method as in Ortega et al., 2001; Vicente et al., 2009. The conditions noted are these: ref Ortega et al., 2001, Vicente et al., 2009; cited from earlier work.
Setting [4] is: repeated in Table 5 for the 3D-QSAR models, read-out: MIC.
Where [5] appears, read: experimental pMIC, Table 5, read-out: pMIC exp (converted).

With `O=C1CSC(c2c[n+]([O-])c3ccc(F)cc3[n+]2[O-])N1c1ccc(Cl)cc1` (stereo not shown) [2u, 7-F-2-(3′-P-chlorophenyl-4′(5H)-thiazolidinone)-quinoxaline-1,4-di-N-oxide], the melting point was 249 to 252 °C. Moreover, the “antimycobacterial activity (in words)” value in the series on Mtb H37Rv (ATCC27294) is listed as “good antimycobacterial activity”. The MIC with Mtb H37Rv (ATCC27294) (setting [4]) came out at 1.56 µg/mL. Moreover, the MIC in the series with Mtb H37Rv (ATCC27294) (setting [5]) was 3.99 µM. It took 91.2 µg/mL (≈ 233 µM) to reach half-maximal inhibition in the series on VERO cell line (IC50). For the same compound, in series [1], the concentration for an effect of 90% (EC90) turned out to be 0.84 µg/mL (≈ 2.14 µM) and the EC99 was found to be 3.27 µg/mL. In addition, the MIC in the series with C. albicans (ATCC90028) is 4 µg/mL (≈ 10.2 µM). In the series on A. fumigatus (3.5352), the MIC came to 2 µg/mL (≈ 5.1 µM). Further, the MIC with C. neoformans (2.3201) turned out to be 4 µg/mL (≈ 10.2 µM). In the series with C. tropicalis (ATCC7349), the MIC came to 4 µg/mL (≈ 10.2 µM). The MIC in [2] fell in the range of 2 to 4 µg/mL (≈ 5.1 to 10.2 µM).
In turn, `O=C1CSC(c2c[n+]([O-])c3ccc(Cl)cc3[n+]2[O-])N1c1ccc(F)cc1` (stereo not shown) [2y, 7-Cl-2-(3′-P-fluorophenyl-4′(5H)-thiazolidinone)-quinoxaline-1,4-di-N-oxide] registered a melting point of 251 to 253 °C. Besides, the “antimycobacterial activity (in words)” value with Mtb H37Rv (ATCC27294) is given as “good antimycobacterial activity”. Also, in the series with Mtb H37Rv (ATCC27294) (setting [4]), the MIC amounted to 1.56 µg/mL. In addition, the MIC in the series with Mtb H37Rv (ATCC27294) (setting [5]) was 3.99 µM. Also, in the series on VERO cell line, the IC50 is 107 µg/mL (≈ 273 µM). In series [1], it took 1.33 µg/mL (≈ 3.39 µM) to reach the 90% level (EC90) and the EC99 was found to be 4.58 µg/mL. For the same compound, the MIC with C. albicans (ATCC90028) is 2 µg/mL (≈ 5.1 µM). For the same compound, in the series on A. fumigatus (3.5352), the MIC was 4 µg/mL (≈ 10.2 µM). In addition, in the series on C. neoformans (2.3201), the MIC was found to be 2 µg/mL (≈ 5.1 µM). Further, the MIC with C. tropicalis (ATCC7349) was 4 µg/mL (≈ 10.2 µM). The MIC in series [2] is 2 to 4 µg/mL (≈ 5.1 to 10.2 µM).
`O=C1CSC(c2c[n+]([O-])c3ccc(Cl)cc3[n+]2[O-])N1c1ccc(Cl)cc1` (stereo not shown) [2z, 7-Cl-2-(3′-P-chlorophenyl-4′(5H)-thiazolidinone)-quinoxaline-1,4-di-N-oxide] displayed a melting point of 252 to 255 °C. In addition, the “antimycobacterial activity (in words)” value with Mtb H37Rv (ATCC27294) is “good antimycobacterial activity”. Also, the MIC in the series on Mtb H37Rv (ATCC27294) (setting [4]) came to 1.56 µg/mL. The MIC with Mtb H37Rv (ATCC27294) (setting [5]) was 3.85 µM. The same compound gave an IC50 with VERO cell line of 94.6 µg/mL (≈ 232 µM). In series [1], this compound displayed an EC90 of 0.92 µg/mL (≈ 2.25 µM) and an EC99 of 3.93 µg/mL. Also, in the series on C. albicans (ATCC90028), the MIC is 4 µg/mL (≈ 9.8 µM). In addition, the MIC in the series on A. fumigatus (3.5352) was 4 µg/mL (≈ 9.8 µM). For the same compound, in the series on C. neoformans (2.3201), the MIC came to 4 µg/mL (≈ 9.8 µM). Further, in the series on C. tropicalis (ATCC7349), the MIC stood at 4 µg/mL (≈ 9.8 µM). For the same compound, in series [2], the MIC lay within 2 to 4 µg/mL (≈ 4.9 to 9.8 µM).
Consider `Cc1ccc2c(c1)[n+]([O-])c(C#N)c(-c1ccc(F)cc1)[n+]2[O-]` [7-methyl-3-(4′-fluoro)phenylquinoxaline-2-carbonitrile-1,4-di-N-oxide], for which, in series [3], the MIC is under 0.2 µg/mL.
